These results are taken from US12540137B2, “N-1 branched alkyl ether substituted imidazo[4,5-c]quinoline compounds, compositions, and methods” (Solventum Intellectual Properties Company, priority 2018, dated 2026).

The test system of this test is Human peripheral blood mononuclear cells (PBMC). The experiment in a line: Cytokine induction in human cells (PBMC). The test is classed as cell-based. As to conditions: for minimal effective concentration / MEC to Induce Cytokine TNF-alpha: human PBMC, 21-24 hours culture, lowest concentration giving cytokine level at least 2× negative control. The protocol: Whole blood was obtained from healthy human donors and collected by venipuncture into vacutainer tubes or syringes containing EDTA. Human peripheral blood mononuclear cells (PBMC) were purified from the whole blood by density gradient centrifugation. Histopaque 1077 (15 mL, Sigma, St. Louis, MO) was transferred to 6×50 mL sterile polypropylene conical tubes. The Histopaque was overlayed with 15-25 mL of blood diluted 1:2 in Hank's Balanced Salts Solution (HBSS) (Gibco, Life Technologies, Grand Island, NY). The tubes were then centrifuged at 1370 rpm for 30 minutes at 20° C., with no brake (400×g, GH 3.8A Rotor).
The interface (buffy coat) containing the PBMC was collected and placed in a new sterile 50 ml conical polypropylene centrifuge tube. The PBMC were mixed with an equal volume of HBSS (about 20 mL from the interface and about 20 mL of HBSS), and then centrifuged at 1090 rpm, 10 minutes, 20° C., with brake (270×g, GH 3.8A Rotor). After completing centrifugation, the cells were resuspended in 2-3 mL ACK Red blood cell lysis buffer (ammonium chloride potassium solution, Gibco, Life Technologies) and incubated for 2-5 minutes at 20° C. Next, HBSS (40 mL) was added to the cells, and the sample was centrifuged at 270×g for 10 minutes at 20° C. The supernatant was decanted, and the cell pellet was resuspended in 5 mL AIM V Medium (Gibco, Life Technologies). Cell aggregates and debris were removed by filtering the cell solution through a BD Falcon 70 micron nylon cell strainer (BD Biosciences, San Jose, CA).
The number of viable cells was determined by counting with a Miltenyi FACS instrument (Miltenyi Biotec Inc., San Diego, CA) or by using a hemocytometer. For determining cell viability with a hemocytometer, the cells were diluted 1/10 in 0.4% trypan blue and HBSS (specifically, 50 microliter of trypan blue+40 microliter of HBSS+10 microliter of cell solution were added to a microfuge tube and mixed). Ten microliters of the diluted cells were then applied to the hemocytometer, and the number of viable PBMC were determined by microscopy.
The PBMC sample was then resuspended in 96-well plates at a concentration of 8×10^5 cells/well in 0.1 mL of AIM-V medium. Each compound was solubilized in dimethyl sulfoxide (DMSO) to create a 3 mM stock solution. The stock solution was then further diluted with AIM-V medium to prepare the serial dilutions. The diluted compound (100 microliters) was then transferred to the PBMCs to produce testing sets with final compound concentrations of either 30, 10, 3.3, 1.1, 0.37, 0.12, 0.04, 0.01 micromolar (testing set A); 30, 10, 3.3, 1.1, 0.37, 0.12, 0.04 micromolar (testing set B); 100, 33.3, 11.1, 3.7, 1.2, 0.4 micromolar (testing set C); or 3.0, 1.0, 0.33, 0.11, 0.037, 0.012, 0.004, 0.0014 micromolar (testing set D). The plates also had both positive and negative controls. The negative control wells contained only AIM-V medium with no example compound. The positive control wells contained a control set of imiquimod serially diluted to concentrations of either 30, 10, 3.3, 1.1, 0.37, 0.12, 0.04, 0.01 micromolar (control set A); 30, 10, 3.3, 1.1, 0.37, 0.12, 0.04 micromolar (control set B); 100, 33.3, 11.1, 3.7, 1.2, 0.4 micromolar (control set C); or 3.0, 1.0, 0.33, 0.11, 0.037, 0.012, 0.004, 0.0014 micromolar (control set D). The concentrations used in the control set were selected to match the concentrations used in the testing set. The plates were then cultured at 37° C./5% CO2 for 21-24 hours. Cell-free supernatants were harvested by centrifuging the 96-well plates at 2100 rpm, 23° C. for 10 minutes. Approximately 160 microliters of the supernatant were then stored in a NUNC 96-well plate, covered with the compression cap and stored at −80° C. until the cytokine analysis was done.
IFN-alpha cytokine levels (picograms/mL) were measured by ELISA (human IFN-alpha, pan specific, Mabtech, Cincinnati, OH). […]

The mark [1] stands for this setting: ELISA, read-out: MEC to Induce Cytokine IFN-alpha.
The mark [2] stands for this setting: multiplex bead assay, read-out: MEC to Induce Cytokine IFN-gamma.

Read-outs that look alike come from different tables or passages of the source. Where only a bound is given, the exact number is not on record here.

As to `CCOC[C@H](C(C)C)n1cnc2c(N)nc3ccccc3c21` [Example 1, 1-[(1S)-1-(ethoxymethyl)-2-methyl-propyl]imidazo[4,5-c]quinolin-4-amine], the minimal effective concentration is, setting by setting: under setting [1], at most 0.04 µM; under setting [2], at most 0.04 µM. For the same compound, under “multiplex bead assay”, the “MEC to Induce Cytokine TNF-alpha” value is at most 0.04 µM.

With `CCOC[C@@H](C(C)C)n1cnc2c(N)nc3ccccc3c21` [Example 2, 1-[(1R)-1-(ethoxymethyl)-2-methyl-propyl]imidazo[4,5-c]quinolin-4-amine], the minimal effective concentration by setting is: under setting [1], 3.3 µM; under setting [2], above 30 µM. The “MEC to Induce Cytokine TNF-alpha” value (multiplex bead assay) was 3.3 µM.

For `CCOC[C@H](C(C)C)n1c(C)nc2c(N)nc3ccccc3c21` [Example 3, 1-[(1S)-1-(ethoxymethyl)-2-methyl-propyl]-2-methyl-imidazo[4,5-c]quinolin-4-amine], the minimal effective concentration under setting [1] was 0.37 µM and the minimal effective concentration under setting [2] stood at 1.1 µM. Further, the “MEC to Induce Cytokine TNF-alpha” value (multiplex bead assay) was 0.37 µM.

On to `CCOC[C@@H](C(C)C)n1c(C)nc2c(N)nc3ccccc3c21` [Example 4, 1-[(1R)-1-(ethoxymethyl)-2-methyl-propyl]-2-methyl-imidazo[4,5-c]quinolin-4-amine], for which the minimal effective concentration is, setting by setting: under setting [1], 10 µM; under setting [2], above 30 µM. The “MEC to Induce Cytokine TNF-alpha” value (multiplex bead assay) is 10 µM.

For `CCOC[C@@H](n1cnc2c(N)nc3ccccc3c21)C(C)(C)O` [Example 5, (3R)-3-(4-aminoimidazo[4,5-c]quinolin-1-yl)-4-ethoxy-2-methyl-butan-2-ol], the minimal effective concentration turned out to be 0.12 µM under setting [1] and 0.12 µM under setting [2]. Besides, under “multiplex bead assay”, the “MEC to Induce Cytokine TNF-alpha” value was 0.04 µM.

For `CCOC[C@H](n1cnc2c(N)nc3ccccc3c21)C(C)(C)O` [Example 6, (3S)-3-(4-aminoimidazo[4,5-c]quinolin-1-yl)-4-ethoxy-2-methyl-butan-2-ol], the minimal effective concentration is above 100 µM under setting [1] and above 100 µM under setting [2]. Also, under “multiplex bead assay”, the “MEC to Induce Cytokine TNF-alpha” value is above 100 µM. The “activity toward cytokine production” value (statement in the description) is “inactive toward cytokine production”.

With `CCOC[C@@H](n1c(C)nc2c(N)nc3ccccc3c21)C(C)(C)O` [Example 7, (3R)-3-(4-amino-2-methyl-imidazo[4,5-c]quinolin-1-yl)-4-ethoxy-2-methyl-butan-2-ol], the minimal effective concentration worked out at 0.12 µM under setting [1] and 0.37 µM under setting [2].

Consider `CCOC[C@@H](n1c(CC)nc2c(N)nc3ccccc3c21)C(C)(C)O` [Example 8, (3R)-3-(4-amino-2-ethyl-imidazo[4,5-c]quinolin-1-yl)-4-ethoxy-2-methyl-butan-2-ol], for which the minimal effective concentration was 10 µM under setting [1] and 3.3 µM under setting [2].

As to `CCOC[C@@H](n1cnc2c(N)nc3ccccc3c21)C(C)(C)C` [Example 9, 1-[(1S)-1-(ethoxymethyl)-2,2-dimethyl-propyl]imidazo[4,5-c]quinolin-4-amine], the minimal effective concentration is 0.004 µM under setting [1] and 0.012 µM under setting [2]. Besides, the “MEC to Induce Cytokine TNF-alpha” value (multiplex bead assay) came to 0.004 µM.

With `CCOC[C@H](n1cnc2c(N)nc3ccccc3c21)C(C)(C)C` [Example 10, 1-[(1R)-1-(ethoxymethyl)-2,2-dimethyl-propyl]imidazo[4,5-c]quinolin-4-amine], the minimal effective concentration amounted to 3 µM under setting [1] and 3 µM under setting [2]. In addition, the “MEC to Induce Cytokine TNF-alpha” value (multiplex bead assay) is 3.0 µM.

As to `COC[C@@H](n1cnc2c(N)nc3ccccc3c21)C(C)(C)C` [Example 11, 1-[(1S)-1-(methoxymethyl)-2,2-dimethyl-propyl]imidazo[4,5-c]quinolin-4-amine], the minimal effective concentration runs as follows: under setting [1], at most 0.4 µM; under setting [2], at most 0.4 µM. Besides, the “MEC to Induce Cytokine TNF-alpha” value (multiplex bead assay) is at most 0.4 µM.

Turning to `CCOC[C@@H](n1cnc2c(N)nc3ccccc3c21)C(O)(CC)CC` [Example 12, (2R)-2-(4-aminoimidazo[4,5-c]quinolin-1-yl)-1-ethoxy-3-ethyl-pentan-3-ol], the minimal effective concentration runs as follows: under setting [1], 0.04 µM; under setting [2], 0.12 µM.

Consider `CCO[C@@H](C)[C@@H](n1cnc2c(N)nc3ccccc3c21)C(C)(C)O` [Example 13, (3R,4S)-3-(4-aminoimidazo[4,5-c]quinolin-1-yl)-4-ethoxy-2-methyl-pentan-2-ol], for which the minimal effective concentration turned out to be 3.3 µM under setting [1] and 10 µM under setting [2]. In addition, under “multiplex bead assay”, the “MEC to Induce Cytokine TNF-alpha” value came out at 10 µM.
